From PMC6268726, “Inhibition of 11β-HSD1 by Tetracyclic Triterpenoids from Euphorbia kansui” (Molecules, 2012)

Legend:
[1] = molecular target: T1, mouse 11β-HSD1 (Mus musculus, UniProt P50172); assay: Inhibition of mouse 11β-HSD1, scintillation proximity assay (SPA) with microsomes from transfected HEK-293 cells; type: biochemical; conditions: for IC50: microsomes, NADPH, [3H]cortisone, n = 2; for Mouse HSD2/HSD1: selectivity ratio IC50 mouse 11β-HSD2 / mouse 11β-HSD1
T1 construct: the full-length cDNAs of human or marine 11β-HSD1 and 11β-HSD2 were isolated from the cDNA libraries; made in house; host or cells: HEK-293 (stably transfected, pcDNA3); microsomal fraction
T1 sequence (P50172 whole entry): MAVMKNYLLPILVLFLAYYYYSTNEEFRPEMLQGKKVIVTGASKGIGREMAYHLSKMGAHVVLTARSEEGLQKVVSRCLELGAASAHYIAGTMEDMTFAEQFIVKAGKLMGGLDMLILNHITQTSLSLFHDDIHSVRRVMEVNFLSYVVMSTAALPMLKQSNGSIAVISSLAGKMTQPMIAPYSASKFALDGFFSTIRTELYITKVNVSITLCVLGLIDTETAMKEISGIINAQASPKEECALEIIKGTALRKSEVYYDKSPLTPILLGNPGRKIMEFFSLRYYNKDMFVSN
Excerpt: (§1) Glucocorticoid hormones play important roles in many biological and physiological processes, including regulation of energy metabolism; inflammatory, immune and stress responses; and cardiovascular homeostasis. The action of glucocorticoid on target tissue is not inevitable dependent on the circulating levels, but is regulated in a tissue-specific manner by the 11β-hydroxysteroid dehydrogenase enzymes (11β-HSD1 and 11β-HSD2), which catalyze the interconversion of active 11-hydroxyglucocorticoids (cortisol in human and corticosterone in rodent) and their respective inert 11-keto forms (cortisone in human and 11-dehyfrocorticosterone in rodent). […] 11β-HSD2 is predominantly expressed in aldosterone target cells such as kidney and colon, where it catalyses the inactivation of glucocorticoids, thereby preventing excessive activation of the mineralocorticoid receptor and sequelae including sodium retention, hypokalemia, and hypertension. We tested the inhibitory effect of compounds on both human and mouse 11β-HSD1 and 11β-HSD2. All tests were done duplicate with glycyrrhizininc acid (human and mouse 11β-HSD1, human 11β-HSD2) and carbenoxolone (mouse 11β-HSD2) as positive control. IC50 (X […] S.D., n = 2) values were calculated by using Prism Version 4 (GraphPad Software, San Diego, CA, USA.).
(§2) Inhibition of compounds on human or mouse 11β-HSD1 and 11β-HSD2 enzymatic activities were determined by the scintillation proxitimity assay (SPA) using microsomes containing 11β-HSD1 or 11β-HSD2 according to the previous studies. Briefly the full-length cDNAs of human or marine 11β-HSD1 and 11β-HSD2 were isolated from the cDNA libraries provided by NIH Mammalian Gene Collection and cloned into pcDNA3 expression vector. HEK-293 cells were transfected with the pcDNA3-dericed expression plasmid and selected by cultivation in the presence of 700 μg/mL of G418. The microsomal fraction overexpressing 11β-HSD1 or 11β-HSD2 was prepared from the HEK-293 cells stable transfected with either 11β-HSD1 or 11β-HSD2 and used as the enzyme source for SPA. Microsomes containing human or mouse 11β-HSD1 was incubated with NADPH and [3H]cortisone, then the product, [3H]cortisol was specifically captured by a monoclonal antibody coupled to protein A-coated SPA beads. The 11β-HSD2 screening was performed by incubating 11β-HSD2 microsomes with [3H]cortisol and NAD^+ and monitoring substrate disappearance. IC50 (X ± S.D., n = 2) values were calculated by using Prism Version 4 (GraphPad Software, San Diego, CA, USA.) with glycyrrhizininc acid and carbenoxolone as positive control.

[2] = molecular target: T2, mouse 11β-HSD2 (Mus musculus, UniProt P51661); assay: Inhibition of mouse 11β-HSD2, SPA with microsomes from transfected HEK-293 cells; type: biochemical; conditions: [3H]cortisol, NAD+, n = 2
T2 construct: the full-length cDNAs of human or marine 11β-HSD1 and 11β-HSD2 were isolated from the cDNA libraries; made in house; host or cells: HEK-293 (stably transfected, pcDNA3); microsomal fraction
T2 sequence (P51661 1-386): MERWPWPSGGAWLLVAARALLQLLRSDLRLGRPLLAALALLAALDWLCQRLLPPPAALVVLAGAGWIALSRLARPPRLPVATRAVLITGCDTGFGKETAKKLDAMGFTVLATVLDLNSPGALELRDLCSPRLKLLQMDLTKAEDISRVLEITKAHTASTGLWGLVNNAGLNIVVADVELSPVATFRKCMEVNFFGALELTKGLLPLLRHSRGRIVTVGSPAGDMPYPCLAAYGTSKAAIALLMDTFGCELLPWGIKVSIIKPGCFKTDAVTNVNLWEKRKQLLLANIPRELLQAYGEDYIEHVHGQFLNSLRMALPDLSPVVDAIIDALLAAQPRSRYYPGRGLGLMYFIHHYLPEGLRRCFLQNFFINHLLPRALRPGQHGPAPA
Excerpt: as §1, §2

[3] = molecular target: T3, human 11β-HSD1 (Homo sapiens, UniProt P28845); assay: Inhibition of human 11β-HSD1, SPA with microsomes from transfected HEK-293 cells; type: biochemical; conditions: for IC50: microsomes, NADPH, [3H]cortisone, n = 2; for Human HSD2/HSD1: selectivity ratio IC50 human 11β-HSD2 / human 11β-HSD1
T3 construct: the full-length cDNAs of human or marine 11β-HSD1 and 11β-HSD2 were isolated from the cDNA libraries; made in house; host or cells: HEK-293 (stably transfected, pcDNA3); microsomal fraction
T3 sequence (P28845 whole entry): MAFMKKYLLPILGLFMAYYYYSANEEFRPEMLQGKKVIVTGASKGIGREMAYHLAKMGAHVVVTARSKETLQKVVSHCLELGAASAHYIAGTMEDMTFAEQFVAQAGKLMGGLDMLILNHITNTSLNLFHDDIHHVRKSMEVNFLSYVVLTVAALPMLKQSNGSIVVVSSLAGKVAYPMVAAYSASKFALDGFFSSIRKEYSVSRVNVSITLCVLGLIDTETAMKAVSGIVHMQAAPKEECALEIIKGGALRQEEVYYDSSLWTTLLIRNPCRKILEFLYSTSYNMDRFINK
Excerpt: as §1, §2

[4] = molecular target: T4, human 11β-HSD2 (Homo sapiens, UniProt P80365); assay: Inhibition of human 11β-HSD2, SPA with microsomes from transfected HEK-293 cells; type: biochemical; conditions: [3H]cortisol, NAD+, n = 2
T4 construct: the full-length cDNAs of human or marine 11β-HSD1 and 11β-HSD2 were isolated from the cDNA libraries; made in house; host or cells: HEK-293 (stably transfected, pcDNA3); microsomal fraction
T4 sequence (P80365 1-405): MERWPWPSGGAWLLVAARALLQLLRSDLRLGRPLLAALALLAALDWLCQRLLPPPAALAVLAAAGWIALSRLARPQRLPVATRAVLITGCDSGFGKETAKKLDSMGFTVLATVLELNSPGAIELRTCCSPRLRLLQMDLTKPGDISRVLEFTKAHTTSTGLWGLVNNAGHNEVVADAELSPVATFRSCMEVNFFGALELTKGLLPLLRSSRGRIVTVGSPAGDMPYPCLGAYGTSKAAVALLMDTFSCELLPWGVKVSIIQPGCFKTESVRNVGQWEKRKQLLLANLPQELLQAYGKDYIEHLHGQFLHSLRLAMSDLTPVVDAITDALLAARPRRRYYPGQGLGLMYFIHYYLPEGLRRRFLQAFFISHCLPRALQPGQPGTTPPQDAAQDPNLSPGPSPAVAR
Excerpt: as §1, §2

**Q.** With `C=C(C)[C@@H](O)CC[C@@H](C)[C@@H]1CC[C@]2(C)C3=C(CC[C@@]12C)[C@@]1(C)CC[C@H](O)C(C)(C)C1CC3` (stereo partly drawn) [Compound 5, (24R)-Eupha-8,25-diene-3β,24-diol] as the compound, how does the IC50 [1] read?
**A.** 0.0495 µM

**Q.** What about the “Mouse HSD2/HSD1” value [1] of the same compound?
**A.** >20218

**Q.** And the IC50 [2]?
**A.** > 1000 µM

**Q.** And the IC50 [3]?
**A.** 0.0265 µM

**Q.** And the “Human HSD2/HSD1” value [3]?
**A.** 63.7

**Q.** And the IC50 [4]?
**A.** 1.69 µM

**Q.** Which IC50 [1] does the source give for `CC(C)=CCC[C@@H](C)[C@@H]1CC[C@]2(C)C3=C(CC[C@@]12C)[C@@]1(C)CC[C@H](O)C(C)(C)[C@@H]1CC3` [Compound 3, Euphol] here?
**A.** 0.0805 µM

**Q.** What about the “Mouse HSD2/HSD1” value [1] of the same compound?
**A.** >12419

**Q.** What about the IC50 [2] of the same compound?
**A.** > 1000 µM

**Q.** What about the IC50 [3] of the same compound?
**A.** 0.0161 µM

**Q.** And the “Human HSD2/HSD1” value [3]?
**A.** 24.6

**Q.** And the IC50 [4]?
**A.** 0.395 µM

**Q.** Which results are given for `C=C(CC[C@](C)(O)[C@@H]1CC[C@]2(C)C3CCC4C(C)(C)[C@@H](O)CC[C@]4(C)C3CC[C@@]12C)C(C)C` (stereo partly drawn) [Compound 1, Euphane-3β,20-dihydroxy-24-ene]?
**A.** IC50 [1]: 0.0784 µM; Mouse HSD2/HSD1 [1]: >12748; IC50 [2]: > 1000 µM; IC50 [3]: 0.0349 µM; Human HSD2/HSD1 [3]: 234.6; IC50 [4]: 8.18 µM

**Q.** For `CC(C)=CCC[C@@H](C)[C@@H]1CC[C@]2(C)C(=O)[C@]3(CC[C@@]12C)[C@@H](O)CC1C(C)(C)[C@@H](O)CC[C@@]13C` (stereo partly shown) [Compound 2, Kansuinone], which IC50 [1] is on record?
**A.** 1.08 µM

**Q.** What about the “Mouse HSD2/HSD1” value [1] of the same compound?
**A.** >928

**Q.** And the IC50 [2]?
**A.** > 1000 µM

**Q.** What about the IC50 [3] of the same compound?
**A.** 1.11 µM

**Q.** What about the “Human HSD2/HSD1” value [3] of the same compound?
**A.** 2.35

**Q.** And the IC50 [4]?
**A.** 2.63 µM

**Q.** Which IC50 [1] does the source give for `C[C@H](C/C=C/C(C)(C)O)[C@@H]1CC[C@]2(C)C3=C(CC[C@@]12C)[C@@]1(C)CC[C@H](O)C(C)(C)C1CC3` (stereo partly drawn) [Compound 6, (20R,23E)-Eupha-8,23-diene-3β,25-diol] here?
**A.** 0.295 µM

**Q.** What about the “Mouse HSD2/HSD1” value [1] of the same compound?
**A.** >3393

**Q.** What about the IC50 [2] of the same compound?
**A.** > 1000 µM

**Q.** And the IC50 [3]?
**A.** 0.016 µM

**Q.** And the “Human HSD2/HSD1” value [3]?
**A.** 41.7

**Q.** What about the IC50 [4] of the same compound?
**A.** 0.666 µM

**Q.** What about the melting point of the same compound?
**A.** 132 to 133 °C

**Q.** With `CC(C)=CCCC(C)C1CCC2(C)C3=C(CCC12C)C1(C)CCC(O)C(C)(C)C1CC3=O` (stereo not shown) [Compound 4, Kansenone] as the compound, how does the IC50 [1] read?
**A.** 0.0134 µM

**Q.** What about the “Mouse HSD2/HSD1” value [1] of the same compound?
**A.** >74850

**Q.** What about the IC50 [2] of the same compound?
**A.** > 1000 µM

**Q.** And the IC50 [3]?
**A.** 0.00281 µM

**Q.** What about the “Human HSD2/HSD1” value [3] of the same compound?
**A.** 38

**Q.** And the IC50 [4]?
**A.** 0.107 µM
